Measurements: patent US5494922A, “Allophanic acid derivatives” (Zeneca Limited, priority 1993, dated 1996)
Where a name gives a salt, the structure may show the parent alone.

Tests used:
[1] = target: T1, human, citrated, platelet-rich plasma (Homo sapiens, UniProt P05106+P08514); experiment: test (a): inhibition of ADP stimulated platelet aggregation in human, citrated, platelet-rich plasma; format: cell-based; conditions: read-out: pA2 (converted)
T1 construct: aggregating human, citrated, platelet-rich plasma; endogenous in cells; host or cells: human platelets in citrated platelet-rich plasma
T1 sequence (P08514 32-887 limits assumed): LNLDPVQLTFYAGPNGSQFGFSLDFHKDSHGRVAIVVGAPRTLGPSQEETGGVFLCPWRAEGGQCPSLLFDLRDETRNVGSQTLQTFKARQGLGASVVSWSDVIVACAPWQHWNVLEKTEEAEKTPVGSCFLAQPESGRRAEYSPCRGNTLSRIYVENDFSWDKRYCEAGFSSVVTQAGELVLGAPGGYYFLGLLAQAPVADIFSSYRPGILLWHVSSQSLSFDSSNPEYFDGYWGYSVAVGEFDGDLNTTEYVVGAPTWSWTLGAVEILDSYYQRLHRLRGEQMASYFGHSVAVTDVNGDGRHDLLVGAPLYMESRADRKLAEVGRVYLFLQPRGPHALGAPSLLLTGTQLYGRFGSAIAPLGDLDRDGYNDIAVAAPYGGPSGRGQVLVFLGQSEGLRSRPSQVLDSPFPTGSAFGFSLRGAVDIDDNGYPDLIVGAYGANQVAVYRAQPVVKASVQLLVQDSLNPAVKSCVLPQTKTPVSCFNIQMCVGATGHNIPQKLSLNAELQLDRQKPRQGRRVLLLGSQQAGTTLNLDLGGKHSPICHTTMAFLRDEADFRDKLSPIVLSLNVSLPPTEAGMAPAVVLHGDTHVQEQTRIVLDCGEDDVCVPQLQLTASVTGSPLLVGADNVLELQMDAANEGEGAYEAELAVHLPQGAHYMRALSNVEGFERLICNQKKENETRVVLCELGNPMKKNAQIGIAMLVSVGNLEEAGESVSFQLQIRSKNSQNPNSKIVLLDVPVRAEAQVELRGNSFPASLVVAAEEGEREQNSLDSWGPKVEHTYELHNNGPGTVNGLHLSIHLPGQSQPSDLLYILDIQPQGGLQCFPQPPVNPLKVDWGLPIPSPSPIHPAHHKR
T1 sequence (P08514 891-1039 limits assumed): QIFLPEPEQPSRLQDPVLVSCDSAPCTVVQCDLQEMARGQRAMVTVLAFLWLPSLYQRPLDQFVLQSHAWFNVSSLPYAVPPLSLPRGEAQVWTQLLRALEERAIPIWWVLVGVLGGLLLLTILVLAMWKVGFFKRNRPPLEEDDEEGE
T1 sequence (P05106 27-788): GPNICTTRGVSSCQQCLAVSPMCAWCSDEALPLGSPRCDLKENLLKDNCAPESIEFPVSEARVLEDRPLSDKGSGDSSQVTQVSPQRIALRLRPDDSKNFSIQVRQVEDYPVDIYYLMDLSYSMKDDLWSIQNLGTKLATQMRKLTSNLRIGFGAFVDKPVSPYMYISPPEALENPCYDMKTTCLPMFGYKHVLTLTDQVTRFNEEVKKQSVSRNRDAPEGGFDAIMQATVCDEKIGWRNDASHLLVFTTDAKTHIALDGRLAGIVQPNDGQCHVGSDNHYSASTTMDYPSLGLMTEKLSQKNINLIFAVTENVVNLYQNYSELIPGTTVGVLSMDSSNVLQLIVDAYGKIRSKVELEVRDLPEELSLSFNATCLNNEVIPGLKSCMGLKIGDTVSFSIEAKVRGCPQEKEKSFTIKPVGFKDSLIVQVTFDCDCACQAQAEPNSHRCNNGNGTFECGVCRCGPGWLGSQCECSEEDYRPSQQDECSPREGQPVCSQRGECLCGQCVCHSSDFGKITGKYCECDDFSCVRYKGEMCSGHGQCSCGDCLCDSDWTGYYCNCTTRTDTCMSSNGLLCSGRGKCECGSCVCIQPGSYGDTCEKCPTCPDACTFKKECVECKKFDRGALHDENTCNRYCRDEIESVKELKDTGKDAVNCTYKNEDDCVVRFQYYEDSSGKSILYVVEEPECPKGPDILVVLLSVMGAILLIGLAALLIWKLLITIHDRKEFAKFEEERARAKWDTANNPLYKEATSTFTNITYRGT
Source text: (i) aggregating human, citrated, platelet-rich plasma by addition of adenosine diphosphate (ADP) so as to generate a dose-response curve;
(ii) generating a dose-response curve for ADP stimulated platelet aggregation in the presence of increasing amounts of a test compound (generally in the range 10^-5 M to 10^-10 M); and
(iii) calculating a pA2 value indicating potency of platelet aggregation inhibition for the test compound, averaged over several concentrations, from the calculated 50% response value for ADP aggregation in the presence and absence of the test compound.

[2] = target: T2, purified human platelet fibrinogen receptor (GPIIb/IIIa) (Homo sapiens, UniProt P05106+P08514); experiment: test (b): GPIIb/IIIa ELISA, inhibition of biotinylated fibrinogen binding; conditions: 50% inhibition of biotinylated fibrinogen binding to GPIIb/IIIa
T2 construct: Glycoprotein IIb/IIIa is isolated from human platelet lysates; from tissue
T2 sequence (P08514 32-887 limits assumed): as the sequence (P08514 32-887 limits assumed) above
T2 sequence (P08514 891-1039 limits assumed): as the sequence (P08514 891-1039 limits assumed) above
T2 sequence (P05106 27-788): as the sequence (P05106 27-788) above
Protocol: (i) Preparation of human platelet lysates
Platelet rich plasma (prp) is harvested by centrifugation (1000 rpm, 15 minutes) of whole blood anticoagulated with acid citrate dextrose (trisodium citrate 85 mM, citric acid 70 mM, d-glucose 110 mM) 1 part to 6 parts blood. Prostacyclin (PGI2, 1 μM) is added to the prp before centrifugation (2400 rpm, 15 min) and the resulting pellet is resuspended in modified Tyrodes' solution (NaCl 130 mM, […], NaHCO3, 12 mM, NaH2 PO4 0.5 mM, MgCl2 1 mM, CaCl2 20 mM, Glucose 12 mM, HEPES 5 mM) containing bovine serum albumin 3.5 g/L, PGI2 1 μM and hirudin 0.5 U/ml. The platelet suspension is centrifuged (2400 rpm, 15 minutes) and the resultant pellet resuspended in 500 μl of lysis buffer (octyl glucoside 50 mM, HEPES 10 mM, NaCl 150 mM, CaCl2 1 mM, MgCl2 1 mM, PMSF 1 mM, NEM 10 mM, leupeptin 0.1 mM), agitated at 4° C. for 15 minutes then centrifuged at 24000 rpm, 15 minutes. The supernatant is stored at 4° C. and the pellet re-suspended in 500 μl of lysis buffer. […]
96 well microtitre plates are coated with 100 μl purified human platelet fibrinogen receptor (GPIIb/IIIa) diluted in coating buffer (Tris-HCl 20 mM, NaCl 150 mM, CaCl2 1 mM, pH 7.4) and left overnight at 4° C. […] Colour is allowed to develop for 10-15 minutes before optical densities are read at 650 nm. […]

Kb [1]	IC50 [2]	Compound
0.0251 µM	0.0251 µM	N=C(N)c1ccc(NC(=O)NC(=O)c2ccc(OCC(=O)O)cc2)cc1 [Example 2, 4-[4-(4-Amidinophenyl)allophanoyl]phenoxyacetic acid]
0.0316 µM	0.126 µM	COC(=O)COc1ccc(C(=O)NC(=O)Nc2ccc(C(=N)N)cc2)cc1 [Example 1, Methyl 4-[4-(4-amidinophenyl)allophoyl]phenoxyacetate, acetate salt]
